Experimental data from PubChem BioAssay (NCI).
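Each compound was tested at five concentrations against cells in 96-well plates for 48 hours. TGI: total growth inhibition.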

How the values were obtained:
Experiment in all cases: DTP human tumour cell line panel, 48 h
[1] = test system: CAKI-1 renal
[2] = test system: SK-MEL-28 melanoma
[3] = test system: SNB-19 CNS
[4] = test system: HT29 colon
[5] = test system: A549 NSCLC
[6] = test system: M14 melanoma
[7] = test system: OVCAR-4 ovarian
[8] = test system: EKVX NSCLC
[9] = test system: BT-549 breast
[10] = test system: KM12 colon
[11] = test system: SF-268 CNS
[12] = test system: MDA-MB-231 breast
[13] = test system: LOX IMVI melanoma
[14] = test system: UO-31 renal
[15] = test system: MDA-MB-435
[16] = test system: IGROV1 ovarian
[17] = test system: COLO 205 colon
[18] = test system: HOP-92 NSCLC
[19] = test system: SK-OV-3 ovarian
[20] = test system: NCI-H226 lung
[21] = test system: MDA-N
[22] = test system: RXF 393 renal
[23] = test system: OVCAR-8 ovarian
[24] = test system: OVCAR-5 ovarian
[25] = test system: K-562 leukemia
[26] = test system: UACC-62 melanoma
[27] = test system: ACHN renal
[28] = test system: RPMI-8226 leukemia
[29] = test system: SW-620 colon
[30] = test system: SK-MEL-5 melanoma
[31] = test system: SF-539 CNS
[32] = test system: SNB-75 CNS
[33] = test system: U251 CNS
[34] = test system: HCC-2998 colon
[35] = test system: PC-3 prostate
[36] = test system: TK-10 renal
[37] = test system: NCI-H460 lung
[38] = test system: OVCAR-3 ovarian
[39] = test system: HCT-116 colon
[40] = test system: NCI-H23 lung
[41] = test system: A498 renal
[42] = test system: SF-295 CNS
[43] = test system: NCI-H522 lung
[44] = test system: HS 578T breast
[45] = test system: T-47D breast
[46] = test system: HOP-62 NSCLC
[47] = test system: NCI/ADR-RES ovarian
[48] = test system: SN12C renal
[49] = test system: HCT-15 colon
[50] = test system: MALME-3M melanoma
[51] = test system: UACC-257 melanoma
[52] = test system: SK-MEL-2 melanoma
[53] = test system: 786-0 renal
[54] = test system: HL-60(TB) leukemia
[55] = test system: DU-145 prostate
[56] = test system: MCF7 breast
[57] = test system: MOLT-4 leukemia
[58] = test system: CCRF-CEM leukemia

Compound: COc1ccc(Cc2c(N)[nH]c(=O)[nH]c2=O)cc1
- TGI [1]: > 100 µM
- TGI [2]: > 100 µM
- TGI [3]: > 100 µM
- TGI [4]: > 100 µM
- TGI [5]: > 100 µM
- TGI [6]: > 100 µM
- TGI [7]: > 100 µM
- TGI [8]: > 100 µM
- TGI [9]: > 100 µM
- TGI [10]: > 100 µM
- TGI [11]: > 100 µM
- TGI [12]: > 100 µM
- TGI [13]: > 100 µM
- TGI [14]: > 100 µM
- TGI [15]: > 100 µM
- TGI [16]: > 100 µM
- TGI [17]: > 100 µM
- TGI [18]: > 100 µM
- TGI [19]: > 100 µM
- TGI [20]: > 100 µM
- TGI [21]: > 100 µM
- TGI [22]: > 100 µM
- TGI [23]: > 100 µM
- TGI [24]: > 100 µM
- TGI [25]: > 100 µM
- TGI [26]: > 100 µM
- TGI [27]: > 100 µM
- TGI [28]: > 100 µM
- TGI [29]: > 100 µM
- TGI [30]: > 100 µM
- TGI [31]: > 100 µM
- TGI [32]: > 100 µM
- TGI [33]: > 100 µM
- TGI [34]: > 100 µM
- TGI [35]: > 100 µM
- TGI [36]: > 100 µM
- TGI [37]: > 100 µM
- TGI [38]: > 100 µM
- TGI [39]: > 100 µM
- TGI [40]: > 100 µM
- TGI [41]: > 100 µM
- TGI [42]: > 100 µM
- TGI [43]: > 100 µM
- TGI [44]: > 100 µM
- TGI [45]: > 100 µM
- TGI [46]: > 100 µM
- TGI [47]: > 100 µM
- TGI [48]: > 100 µM
- TGI [49]: > 100 µM
- TGI [50]: > 100 µM
- TGI [51]: > 100 µM
- TGI [52]: > 100 µM
- TGI [53]: > 100 µM

Compound: O=C1c2c(O)ccc(O)c2C(=O)c2c(NCCNC(=O)C(O)C(O)C(O)C(O)CO)ccc(NCCNC(=O)C(O)C(O)C(O)C(O)CO)c21 (configuration not stated)
- TGI [54]: 0.0149 µM
- TGI [4]: 0.399 µM
- TGI [5]: 1.53 µM
- TGI [6]: 1.39 µM
- TGI [7]: 0.771 µM
- TGI [8]: 1.42 µM
- TGI [9]: 2.36 µM
- TGI [10]: 0.534 µM
- TGI [11]: 1.98 µM
- TGI [12]: 0.633 µM
- TGI [14]: 0.352 µM
- TGI [16]: 1.45 µM
- TGI [17]: 0.578 µM
- TGI [19]: 1.41 µM
- TGI [20]: 0.524 µM
- TGI [21]: 0.601 µM
- TGI [22]: 0.812 µM
- TGI [55]: 0.254 µM
- TGI [23]: 0.528 µM
- TGI [24]: 1.88 µM
- TGI [26]: 1.04 µM
- TGI [56]: 0.243 µM
- TGI [27]: 0.101 µM
- TGI [28]: 0.202 µM
- TGI [30]: 0.522 µM
- TGI [31]: 0.44 µM
- TGI [32]: 1.23 µM
- TGI [34]: 0.483 µM
- TGI [35]: 1.51 µM
- TGI [36]: 1.37 µM
- TGI [37]: 0.0159 µM
- TGI [38]: 2.29 µM
- TGI [39]: 0.197 µM
- TGI [40]: 0.417 µM
- TGI [42]: 0.0291 µM
- TGI [43]: 0.218 µM
- TGI [44]: 2.7 µM
- TGI [45]: 2.35 µM
- TGI [46]: 1.13 µM
- TGI [47]: 2.24 µM
- TGI [48]: 0.0118 µM
- TGI [49]: 1.04 µM
- TGI [50]: 2.65 µM
- TGI [51]: 7.24 µM
- TGI [52]: 2.88 µM
- TGI [53]: 0.0531 µM

Compound: CC1=C(C)C(=O)C(C2=C(C3=CC(=O)C(C)=C(C)C3=O)C(=O)C(C)=C(C)C2=O)=CC1=O
- TGI [57]: > 100 µM
- TGI [1]: 8.87 µM
- TGI [2]: 14 µM
- TGI [54]: > 100 µM
- TGI [3]: > 100 µM
- TGI [4]: 9.02 µM
- TGI [5]: > 84.4 µM
- TGI [6]: > 40.7 µM
- TGI [7]: 4.57 µM
- TGI [8]: > 70 µM
- TGI [9]: 21.6 µM
- TGI [10]: 30.4 µM
- TGI [11]: 34.5 µM
- TGI [12]: 5.29 µM
- TGI [13]: > 21.3 µM
- TGI [14]: 34.1 µM
- TGI [15]: 14.2 µM
- TGI [16]: 31.2 µM
- TGI [17]: 8.07 µM
- TGI [18]: > 51.2 µM
- TGI [58]: > 100 µM
- TGI [19]: 32.6 µM
- TGI [20]: 31.8 µM
- TGI [21]: > 20.2 µM
- TGI [22]: 5.16 µM
- TGI [55]: 30 µM
- TGI [23]: > 47.1 µM
- TGI [24]: > 34.6 µM
- TGI [26]: 25.9 µM
- TGI [56]: > 21.1 µM
- TGI [27]: 18.3 µM
- TGI [29]: 13 µM
- TGI [30]: 5.85 µM
- TGI [31]: 4.99 µM
- TGI [32]: 33.3 µM
- TGI [33]: > 38.2 µM
- TGI [34]: 28.6 µM
- TGI [35]: 16 µM
- TGI [36]: 27 µM
- TGI [37]: 29.6 µM
- TGI [39]: > 100 µM
- TGI [40]: 43.1 µM
- TGI [41]: 21.5 µM
- TGI [42]: 33.8 µM
- TGI [43]: 5.21 µM
- TGI [44]: > 79.7 µM
- TGI [45]: 7.32 µM
- TGI [46]: 36.5 µM
- TGI [48]: 47.9 µM
- TGI [49]: > 61.8 µM
- TGI [50]: 11.4 µM
- TGI [51]: 28.4 µM
- TGI [52]: 31 µM
- TGI [53]: > 49.4 µM

Compound: CN1C(=O)C(/C=N/NC(=O)c2cccnc2)C(N)N(C)C1=O (configuration not stated)
- TGI [57]: > 100 µM
- TGI [1]: > 100 µM
- TGI [2]: > 100 µM
- TGI [3]: > 100 µM
- TGI [4]: > 100 µM
- TGI [5]: > 100 µM
- TGI [6]: > 100 µM
- TGI [7]: > 100 µM
- TGI [8]: > 100 µM
- TGI [9]: > 100 µM
- TGI [10]: > 100 µM
- TGI [11]: > 100 µM
- TGI [12]: > 100 µM
- TGI [14]: > 100 µM
- TGI [15]: > 100 µM
- TGI [16]: > 100 µM
- TGI [17]: > 100 µM
- TGI [58]: > 100 µM
- TGI [19]: > 100 µM
- TGI [20]: > 100 µM
- TGI [21]: > 100 µM
- TGI [22]: > 100 µM
- TGI [55]: > 100 µM
- TGI [23]: > 100 µM
- TGI [24]: > 100 µM
- TGI [25]: > 100 µM
- TGI [26]: > 100 µM
- TGI [56]: > 100 µM
- TGI [27]: > 100 µM
- TGI [28]: > 100 µM
- TGI [29]: > 100 µM
- TGI [30]: > 100 µM
- TGI [32]: > 100 µM
- TGI [33]: > 100 µM
- TGI [34]: > 100 µM
- TGI [35]: > 100 µM
- TGI [36]: > 100 µM
- TGI [37]: > 100 µM
- TGI [38]: > 100 µM
- TGI [39]: > 100 µM
- TGI [40]: > 100 µM
- TGI [42]: > 100 µM
- TGI [43]: > 100 µM
- TGI [44]: > 100 µM
- TGI [45]: > 100 µM
- TGI [46]: > 100 µM
- TGI [47]: > 100 µM
- TGI [48]: > 100 µM
- TGI [49]: > 100 µM
- TGI [50]: > 100 µM
- TGI [51]: > 100 µM
- TGI [52]: > 100 µM
- TGI [53]: > 100 µM

Compound: OCc1cc2c([nH]c3ccccc32)c(C(O)CO)n1 (configuration not stated)
- TGI [57]: > 100 µM
- TGI [1]: > 100 µM
- TGI [2]: > 100 µM
- TGI [54]: > 100 µM
- TGI [3]: > 100 µM
- TGI [4]: > 100 µM
- TGI [5]: > 100 µM
- TGI [6]: > 100 µM
- TGI [7]: > 100 µM
- TGI [8]: > 100 µM
- TGI [9]: > 100 µM
- TGI [10]: > 100 µM
- TGI [11]: > 100 µM
- TGI [12]: > 100 µM
- TGI [13]: > 100 µM
- TGI [14]: > 100 µM
- TGI [15]: > 100 µM
- TGI [16]: > 100 µM
- TGI [17]: > 100 µM
- TGI [18]: > 100 µM
- TGI [58]: > 100 µM
- TGI [19]: > 100 µM
- TGI [20]: > 100 µM
- TGI [21]: > 100 µM
- TGI [55]: > 100 µM
- TGI [23]: > 100 µM
- TGI [24]: > 100 µM
- TGI [25]: > 100 µM
- TGI [26]: > 100 µM
- TGI [56]: > 100 µM
- TGI [27]: > 100 µM
- TGI [28]: > 100 µM
- TGI [29]: > 100 µM
- TGI [30]: > 100 µM
- TGI [31]: > 100 µM
- TGI [32]: > 100 µM
- TGI [33]: > 100 µM
- TGI [34]: > 100 µM
- TGI [35]: > 100 µM
- TGI [36]: > 100 µM
- TGI [37]: > 100 µM
- TGI [38]: > 100 µM
- TGI [39]: > 100 µM
- TGI [40]: > 100 µM
- TGI [41]: > 100 µM
- TGI [42]: > 100 µM
- TGI [43]: > 100 µM
- TGI [44]: > 100 µM
- TGI [45]: > 100 µM
- TGI [47]: > 100 µM
- TGI [48]: > 100 µM
- TGI [49]: > 100 µM
- TGI [50]: > 100 µM
- TGI [51]: > 100 µM
- TGI [52]: > 100 µM
- TGI [53]: > 100 µM
